According to patent US20080025962A1, “Remedy for Alzheimer's Disease” (AnGesMG,Inc., priority 2005, published 2008):
“Also recorded” adds a separate entry of the source.

How the values were obtained:
[1] = tested on: Human brain microvascular endothelial cells (arterial); assay: Cell growth (cell count) of artery endothelial cells after Aβ stimulation; assay type: cell-based; settings: for Cell count (relative to control as 100): Artery endothelial cells
Procedure: (§1) Human brain microvascular endothelial cells (HBMEC), human umbilical artery endothelial cells (HUAEC), human umbilical vein endothelial cells (HUVEC) and human aortic smooth muscle cells (HSMC) were obtained from Applied Cell Biology Research Institute. The cells were cultured using a modified MCDB131 medium supplemented with 2% or 10% FBS; those subcultured over 3 to 6 passages were used in the experiments described below.
(§2) Human brain microvascular endothelial cells (arterial and venous) cultured in a 12-well plate by the above-described method were stimulated with Aβ1-40 (0.05 μM, 0.5 μM and 5 μM), Aβ1-42 (0.5 μM), Aβ40-1 (0.5 μM), and control (no Aβ derivative added) for 72 hours. Aβ40-1 has the sequence reverse to that of Aβ1-40. This was used as the control peptide. Next, the number of cells was counted manually using a hemocytometer.

Akt = assay: Western blot assay, Akt phosphorylation; assay type: cell-based, human; settings: VEGF 10 ng/mL, Aβ1-40 0.5 μM, up to 40 minutes
Procedure: (§3) After the EC reached an 80% confluence, the medium was exchanged with an FBS-free fresh medium, and the EC was allowed to stand for 4 hours. Next, the cells were stimulated with human VEGF (10 ng/mL) and Aβ1-40 (0.5 μM) for up to 40 minutes. Total cell protein extract from human endothelial cells was separated on 12.5% SDS-polyacrylamide gel, and transferred to a nitrocellulose membrane. The membrane was subjected to Western blotting using antibodies against human Akt, phosphorylated Akt and phosphorylated ERK (Cell Signaling).

endothelial cells = assay: Endothelial cell migration, Boyden chamber assay; assay type: cell-based, human; settings: VEGF 10 ng/ml; for Effect on endothelial migration: Boyden chamber
Procedure: as §1
Next, endothelial cell migration was examined using Boyden chamber assay. Briefly, an EBM-2 medium comprising VEGF (10 ng/ml), Aβ1-40 (0.5 μM and 5 μM)+VEGF (10 ng/ml), Aβ40-1 (0.5 μM)+VEGF (10 ng/ml), 10% FBS or control (no Aβ derivative added) was placed in the lower section of a chamber. 5×10^4 endothelial cells (in 50 μL of EBM-2 supplemented with 0.5% bovine serum albumin) were seeded into the upper section of the chamber. Cell migration was measured by counting the cells in four highly magnified fields of vision (×40). Three experiments were performed for each group. (mean ±standard deviation: P<0.05)
The unit of measurement is in cell count/field of vision.

[2] = tested on: low-density monocytes from the spleen of a C57BL/6J mouse; assay: Adult vascular stem cell differentiation assay; assay type: cell-based; settings: Dil-acetylated LDL and BS-1 double staining; 4 days of cultivation
Procedure: Briefly, low-density monocytes were isolated from the spleen of a C57BL/6J mouse by a density centrifugation method using Histopaque-1083 (Sigma, St. Louis, Mo.). The cells were seeded onto a 4-well glass slide (Nunc International) coated with rat vitronectin (Sigma), and cultured in a medium comprising 2% heat inactivated defined FBS. The medium was supplemented with the endothelial growth supplementation kit, EGM-2MV single aliquot (Clonetics).
After 4 days of cultivation, the cells were incubated with the addition of acetylated LDL (Biomedical Technologies, Stoughton, Mass.), and stained with FITC-conjugated Griffonia simplicifolia lectin I (BS1-lectin) (Vector Laboratories). In 15 fields of vision at 40× magnification, the number of cells double stained with acLDL-Dil and BS1 was counted for each sample as endothelial precursors.

Human SMC = assay: ELISA assay of VEGF level in SMC culture; assay type: cell-based; settings: 48 hours after stimulation
Procedure: as §1
Human SMC was cultured in a 12-well culture plate of an MCDB medium comprising 10% FBS. 48 hours after Aβ1-40 stimulation, the VEGF level in each well was tested by enzyme immunoassay (R&D System).

ERK = assay: Western blot assay, ERK phosphorylation; assay type: cell-based, human; settings: VEGF 10 ng/mL, Aβ1-40 0.5 μM, up to 40 minutes
Procedure: as §3

[3] = tested on: Human umbilical artery endothelial cells; assay: EC vessel formation on Matrigel, artery endothelial cells; assay type: cell-based; settings: for Full-length of cells on Matrigel, Mean value: Artery endothelial cells, 72 hours stimulation, 18 hours on Matrigel
Procedure: as §1
(§4) Human umbilical artery endothelial cells and human umbilical vein endothelial cells were stimulated with Aβ1-40 (0.5 μM and 5 μM), Aβ40-1 (0.5 μM), and control (no Aβ derivative added) for 72 hours; after reaching an 80% confluence, endothelial cells were then washed with PBS, trypsinated, and cultured on a 6-well culture plate coated with Matrigel basal membrane matrix (Becton Dickinson Labware) for 18 hours. The cells on the Matrigel were photographed, and the full-length was measured using an NIH image analyzer.
(§5) The unit of measurement is in pixel.

[4] = tested on: Human brain microvascular endothelial cells (venous); assay: Cell growth (cell count) of venous endothelial cells after Aβ stimulation; assay type: cell-based; settings: 72 hours
Procedure: as §1, §2

[5] = tested on: human umbilical vein endothelial cells; assay: EC vessel formation on Matrigel, vein endothelial cells; assay type: cell-based; settings: 72 hours stimulation, 18 hours on Matrigel
Procedure: as §1, §4, §5

c57/BL6J mice = assay: Matrigel plug transplant assay; assay type: in vivo, mouse
Procedure: Age-matched male c57/BL6J mice at 8 weeks of age were given 500 μL of Matrigel comprising 50 ng/mL VEGF and Aβ1-40 (5 μM), and 37 units of heparin by subcutaneous injection. Seven days later, the Matrigel plug was carefully recovered from each mouse, washed with phosphate-buffered saline (PBS) three times, and stored under freezing at −20° C. A section ([…]) of the frozen plug was fixed in ice-cooled acetone, and then stained with rat anti-mouse CD31 primary antibody (Pharmingen), FITC-conjugated anti-α smooth muscle actin antibody (Sigma) and Alexa-conjugated goat anti-rat secondary antibody (Molecular Probe).
Blood vessel density in the stained section was evaluated by fluorescence intensity using the NIH image software. The hemoglobin content in each plug was measured as an index of adult vascular regeneration.

[6] = Matrigel plug with 50 ng/mL VEGF and Aβ1-40 (5 μM), subcutaneous, seven days

Question: How did the “Toxic effect on endothelial cells (necrotized cells observed)” value ([1]; 0.5 μM, 72 hours, FIG. 2) turn out when “Aβ1-42: β-amyloid species longer than Aβ1-40 by two residues on the C-terminal side” was run?
Answer: toxic effect on endothelial cells

Question: “vascular endothelial growth factor [VEGF]” was tested. Which “Intracellular Akt phosphorylation” value (Akt) did it give?
Answer: stimulated

Question: And the “Effect on endothelial migration” value (endothelial cells)?
Answer: endothelial migration was caused by vasculogenesis by VEGF

Question: What about the “Cell migration, Mean value” (endothelial cells; substance in lower section of chamber, Aβ1-40 0.5 μM and 5 μM, Aβ40-1 0.5 μM) of the same substance?
Answer: 100.018 cell count/field of vision

Question: β-amyloid 1-40 [Aβ1-40] was tested. Which “Effect on growth and differentiation of vascular stem/precursor cells” value [2] did it give?
Answer: inhibitory effect on the differentiation of vascular stem cells; also recorded: suppressed the growth and differentiation of the cultured vascular precursor cells

Question: What about the “Effect on VEGF secretion from VSMC” value (Human SMC) of the same substance?
Answer: no direct effect on VEGF secretion from VSMC

Question: And the “VEGF level, Mean value” (Human SMC; DSF, enzyme immunoassay)?
Answer: 0.080

Question: And the “ERK phosphorylation caused by VEGF” value (ERK)?
Answer: no effect on the ERK phosphorylation caused by VEGF

Question: What about the “Intracellular Akt phosphorylation” value (Akt) of the same substance?
Answer: inhibited

Question: And the “Cell count (relative to control as 100)” value ([1]; 0.05 μm, 72 hours)?
Answer: 78 ± 9.481

Question: What about the “Cell count (relative to control as 100)” value ([1]; 0.5 μm, 72 hours) of the same substance?
Answer: 75 ± 8.011

Question: And the “Cell count (relative to control as 100)” value ([1]; 5 μm, 72 hours)?
Answer: 73 ± 11.699

Question: And the “Effect on growth of human brain microvascular endothelial cells” value ([1]; text statement for arterial and venous cells, more conspicuous in arteries)?
Answer: suppressed the growth of human brain microvascular endothelial cells

Question: What about the “Full-length of cells on Matrigel, Mean value” (from here on “Full-length of cells”) ([3]; 0.5 μm) of the same substance?
Answer: 8719.333 pixel

Question: And the “Full-length of cells” value ([3]; 5 μm)?
Answer: 7951.167 pixel

Question: What about the “Effect on EC vessel formation on Matrigel” value ([3]; text statement for Tables 2 and 3) of the same substance?
Answer: suppressed EC vessel formation on Matrigel

Question: What about the “Cell count (relative to control as 100)” value ([4]; 0.05 μm) of the same substance?
Answer: 80 ± 18.987

Question: And the “Cell count (relative to control as 100)” value ([4]; 0.5 μm)?
Answer: 73 ± 11.392

Question: And the “Cell count (relative to control as 100)” value ([4]; 5 μm)?
Answer: 70 ± 5.968

Question: What about the “Full-length of cells” value ([5]; 0.5 μm) of the same substance?
Answer: 10599.000 pixel

Question: What about the “Full-length of cells” value ([5]; 5 μm) of the same substance?
Answer: 9884.333 pixel

Question: And the “Blood vessel density, Mean value” (c57/BL6J mice; [6])?
Answer: 825.800 pixel

Question: What about the “Hemoglobin content, Mean value” (c57/BL6J mice; [6]) of the same substance?
Answer: 0.084 OD 450/tissue mg

Question: What about the “Effect on adult vascular regeneration in vivo” value (c57/BL6J mice; Matrigel plug, mice) of the same substance?
Answer: suppressive effect on adult vascular regeneration in vivo

Question: What about the “Effect on endothelial migration” value (endothelial cells) of the same substance?
Answer: the effect was inhibited
